Reference: patent publication US20220233746A1, “PHARMACEUTICAL COMPOSITION FOR JOINT DISEASE TREATMENT AND METHOD FOR PRODUCING SAME” (EDUCATIONAL FOUNDATION OF OSAKA MEDICAL AND PHARMACEUTICAL …, priority 2019, published 2022)

Assays:
[1] = system: rabbit meniscus defect; assay: Rabbit meniscus defect model, transplantation of peptide hydrogel into the defect; format: in vivo, Japanese white rabbits
Procedure: First, 20 male Japanese white rabbits weighing 3.0 to 3.4 kg at 6 months of age were prepared, and a cylindrical defect with a diameter of 2.0 mm was prepared in the medial anterior segment of the meniscus of both knees (FIG. 2A). Further, a peptide hydrogel produced by the above method using a peptide of KI24RGDS and 5×PBS was prepared (FIG. 2B), and the peptide hydrogel was filled in the defect. The group in which the defect was filled with peptide hydrogel was designated as the KI24RGDS group, and the group in which no treatment was applied to the defect was designated as the control group. After transplantation, tissue evaluation was performed on the knees of each group using hematoxylin/eosin staining (HE staining) or safranin O staining. Tissue evaluation was performed at 2, 4, 8 and 12 weeks after transplantation, and 5 animals (10 knees) were evaluated at each evaluation period. In addition, the tissue evaluation used Ishida score and Quantitative Analysis of the Occupation Ratio of Tissue Regeneration (R/D ratio). In the evaluation based on Ishida score, scores were given from the three viewpoints shown in Table 1 below, and the degree of tissue repair was evaluated by the total. On the other hand, in the evaluation based on the R/D ratio, the degree of tissue repair was evaluated by analyzing the area of the entire defect (D) and the area of the repaired tissue (R) and calculating the ratio of R/D using ImageJ software as shown in FIG. 3.

[2] = Measurement of mechanical strength of peptide hydrogel (rheology measurement, rheometer); format: physicochemical
Procedure: Next, an equal amount (100 μL) of 2×PBS, 4×PBS, 6×PBS or 10×PBS was added to the aqueous peptide solution and mixed. Therefore, the final concentration of PBS in the mixture was 1×PBS, 2×PBS, 3×PBS, and 5×PBS, respectively. Thereafter, it was allowed to stand still in a cool and dark place for one day. As a result, the peptide in the aqueous peptide solution self-assembled by the action of the salt in PBS, and a peptide hydrogel was obtained. In addition, as a comparative example, Eagle's minimum essential medium (EMEM), which contains salts necessary for gel formation but is considered to be toxic in vivo, or 10 wt % NaCl aqueous solution (final concentration is 5 wt %) was added in an equal amount to the peptide aqueous solution and mixed, and the mixture was allowed to stand still in a cool and dark place for 1 day. A peptide hydrogel was also obtained in this comparative example.
[Example 2: Measurement of mechanical strength of peptide hydrogel] In order to evaluate the mechanical strength of each peptide hydrogel obtained as described above, a rheometer (HAAKE viscosity/viscoelasticity measuring device (HAAKE MARS40) manufactured by Thermo Scientific) was used for each peptide hydrogel and the rheology thereof was measured.

[3] = hydrogel made with 5×PBS filled in 2.0 mm meniscus defect, 2, 4, 8 and 12 weeks after transplantation, versus untreated control group

## IKIKIKIKIKRGDSKIKIKIKIKI (Peputide including strand and turn) [KI24RGDS, self-assembling β-hairpin peptide tested as a peptide hydrogel formed by adding PBS, NaCl solution or EMEM to its aqueous solution]
[1]; 2, 4, 8 and 12 weeks after transplantation (FIG. 4)
  macroscopic findings of the meniscus defect: became smaller and repaired
[1]; 2, 4, 8 and 12 weeks after transplantation (FIG. 5)
  safranin O-stained meniscus tissue findings: cells gathered in the defect and the tissue was repaired
[1]; [3]
  Ishida score: higher in the KI24RGDS group than in the control group
  R/D ratio (Occupation Ratio of Tissue Regeneration): higher in the KI24RGDS group than in the control group
[2]; comparative hydrogel produced with 5 wt % NaCl aqueous solution (final concentration)
  difference between the storage elastic modulus G and the loss elastic modulus G″: approximately 3750
[2]; hydrogel produced with 3×PBS (final concentration)
  difference between the storage elastic modulus G and the loss elastic modulus G″: approximately 3950
[2]; hydrogel produced with 5×PBS (final concentration)
  loss elastic modulus G″ of the peptide hydrogel: about 800
[2]; hydrogel produced with 5×PBS (final concentration), 6% aqueous peptide solution mixed in equal amount
  storage elastic modulus G of the peptide hydrogel: about 15,000
